Measurements: patent US9073903B2, “Imidazole-2,4-dione inhibitors of casein kinase 1” (Jasco Pharmaceuticals, LLC, priority 2010, dated 2015)
Like-named read-outs stand apart in the source and are kept apart here.

How the values were obtained:
[1] = test system: MDA-MB-468 cells; test: Inhibition of MDA-MB-468 cells (MTS cell proliferation); format: cell-based; details: for OD value 1 / OD value 2: 490 nm; for OD value 1 / OD value 2 / inhibition at 0.4 µM / inhibition at 0.8 µM / inhibition at 1.6 µM / inhibition at 3.2 µM / inhibition at 6.25 µM / inhibition at 12.5 µM / inhibition at 25 µM / inhibition at 50 µM / inhibition at 100 µM: 72 h; for inhibition at 0.4 µM / inhibition at 0.8 µM / inhibition at 1.6 µM / inhibition at 3.2 µM / inhibition at 6.25 µM / inhibition at 12.5 µM / inhibition at 25 µM / inhibition at 50 µM / inhibition at 100 µM / IC50: Homo sapiens
Protocol: Inhibition of MDA-MB-468 Cells Cells: MDA-MB-468 cells, ATCC Passage unknown, Mycoplasma free. Medium: RPMI-1640 Medium (GIBCO Cat #22400121) supplemented with 10% fetal bovine serum (Hyclone Cat #SH30396.03). Seeding: 2,000 cells/well (100 ul) into 96-wells plate, incubated overnight at 37° C. in a humidified, 5% CO2 atmosphere. Treatment: Test compounds and Gemcitabine were prepared in a serial dilution (1:2) by culture medium. Fifty microliters (50 uL) of serially diluted solutions were added into each well. The final concentrations of the positive control and test compounds were shown in the graphs. The cells were incubated for 72 hours after addition of the test compounds. MTS: 15 uL of MTS solution (Promega Cat #G5430) was added into each well and incubated with cells for 4 hours at 37° C. in a humidified, 5% CO2 atmosphere. Measurement: Absorbance at 490 nm was measured using MD Spectramax Plus384 spectrophotometer. The regression curves were calculated by the GraphPad Prism 5 using “log(inhibitor) vs response—variable slope”.

[2] = test system: PC-3 cells; test: Inhibition of PC-3 cells (MTS cell proliferation); format: cell-based; details: for OD value 1 / OD value 2: 490 nm; for OD value 1 / OD value 2 / inhibition at 0.4 µM / inhibition at 0.8 µM / inhibition at 1.6 µM / inhibition at 3.2 µM / inhibition at 6.25 µM / inhibition at 12.5 µM / inhibition at 25 µM / inhibition at 50 µM / inhibition at 100 µM: 72 h; for inhibition at 0.4 µM / inhibition at 0.8 µM / inhibition at 1.6 µM / inhibition at 3.2 µM / inhibition at 6.25 µM / inhibition at 12.5 µM / inhibition at 25 µM / inhibition at 50 µM / inhibition at 100 µM / IC50: Homo sapiens, PC-3
Protocol: Inhibition of PC-3 Cells: Cells: PC-3 cells, ATCC Passage unknown, Mycoplasma free. Medium: DMEM Medium (GIBCO Cat #11995073) supplemented with 10% fetal bovine serum (Hyclone Cat #SH30396.03). Seeding: 3,000 cells/well (100 ul) into 96-wells plate, incubated overnight at 37° C. in a humidified, 5% CO2 atmosphere. Treatment: Test compounds and Gemcitabine were prepared in a serial dilution (1:2) by culture medium. Fifty microliters (50 uL) of serially diluted solutions were added into each well. The final concentrations of the positive control and test compounds were shown in the graphs. The cells were incubated for 72 hours after addition of the test compounds. MTS: 15 uL of MTS solution (Promega Cat #G5430) was added into each well and incubated with cells for 4 hours at 37° C. in a humidified, 5% CO2 atmosphere. Measurement: Absorbance at 490 nm was measured using MD Spectramax Plus384 spectrophotometer. The regression curves were calculated by the GraphPad Prism 5 using “log(inhibitor) vs response—variable slope”. Calculation: % of inhibition=(ODzero ctrl−OD compound)/ODzero ctrl*100.

`Nc1ccn([C@@H]2O[C@H](CO)[C@@H](O)C2(F)F)c(=O)n1` [Gemcitabine] was tested, and the “OD value 1” value ([1]; 0.400 μM, replicate 1) was 0.313, the “OD value 2” value ([1]; 0.400 μM, replicate 2) was 0.337 and the “OD value 1” value ([1]; 0.800 μM, replicate 1) was 0.275. For the same compound, the “OD value 2” value ([1]; 0.800 μM, replicate 2) was 0.310, the “OD value 1” value ([1]; 1.600 μM, replicate 1) was 0.201 and the “OD value 2” value ([1]; 1.600 μM, replicate 2) was 0.264. For the same compound, the “OD value 1” value ([1]; 3.200 μM, replicate 1) was 0.151, the “OD value 2” value ([1]; 3.200 μM, replicate 2) was 0.192 and the “OD value 1” value ([1]; 6.250 μM, replicate 1) was 0.101. The “OD value 2” value ([1]; 6.250 μM, replicate 2) was 0.105, the “OD value 1” value ([1]; 12.500 μM, replicate 1) was 0.066 and the “OD value 2” value ([1]; 12.500 μM, replicate 2) was 0.053. For the same compound, the “OD value 1” value ([1]; 25.000 μM, replicate 1) was 0.033, the “OD value 2” value ([1]; 25.000 μM, replicate 2) was 0.035 and the “OD value 1” value ([1]; 50.000 μM, replicate 1) was 0.064. The “OD value 2” value ([1]; 50.000 μM, replicate 2) was 0.064, the “OD value 1” value ([1]; 100.000 μM, replicate 1) was 0.034 and the “OD value 2” value ([1]; 100.000 μM, replicate 2) was 0.007. The inhibition at 0.4 µM ([1]; MDA-MB-468, 0.400 μM, replicate 1, read-out: % of inhibition 1) was 6.01%, the inhibition at 0.4 µM ([1]; MDA-MB-468, 0.400 μM, replicate 2, read-out: % of inhibition 2) was 1.17% and the inhibition at 0.8 µM ([1]; MDA-MB-468, 0.800 μM, replicate 1, read-out: % of inhibition 1) was 17.4%. It also gave an inhibition at 0.8 µM ([1]; MDA-MB-468, 0.800 μM, replicate 2, read-out: % of inhibition 2) of 9.08%, an inhibition at 1.6 µM ([1]; MDA-MB-468, 1.600 μM, replicate 1, read-out: % of inhibition 1) of 39.6% and an inhibition at 1.6 µM ([1]; MDA-MB-468, 1.600 μM, replicate 2, read-out: % of inhibition 2) of 22.6%. It also gave an inhibition at 3.2 µM ([1]; MDA-MB-468, 3.200 μM, replicate 1, read-out: % of inhibition 1) of 54.7%, an inhibition at 3.2 µM ([1]; MDA-MB-468, 3.200 μM, replicate 2, read-out: % of inhibition 2) of 43.6% and an inhibition at 6.25 µM ([1]; MDA-MB-468, 6.250 μM, replicate 1, read-out: % of inhibition 1) of 69.7%. It also gave an inhibition at 6.25 µM ([1]; MDA-MB-468, 6.250 μM, replicate 2, read-out: % of inhibition 2) of 69.1%, an inhibition at 12.5 µM ([1]; MDA-MB-468, 12.500 μM, replicate 1, read-out: % of inhibition 1) of 80.2% and an inhibition at 12.5 µM ([1]; MDA-MB-468, 12.500 μM, replicate 2, read-out: % of inhibition 2) of 84.4%. For the same compound, the inhibition at 25 µM ([1]; MDA-MB-468, 25.000 μM, replicate 1, read-out: % of inhibition 1) was 90.1%, the inhibition at 25 µM ([1]; MDA-MB-468, 25.000 μM, replicate 2, read-out: % of inhibition 2) was 89.6% and the inhibition at 50 µM ([1]; MDA-MB-468, 50.000 μM, replicate 1, read-out: % of inhibition 1) was 80.8%. For the same compound, the inhibition at 50 µM ([1]; MDA-MB-468, 50.000 μM, replicate 2, read-out: % of inhibition 2) was 81.1%, the inhibition at 100 µM ([1]; MDA-MB-468, 100.000 μM, replicate 1, read-out: % of inhibition 1) was 89.8% and the inhibition at 100 µM ([1]; MDA-MB-468, 100.000 μM, replicate 2, read-out: % of inhibition 2) was 97.8%. It also gave an IC50 ([1]; MDA-MB-468, Table 17, read-out: MDA-MB-468* 50% inhibition concentration) of 3.34 µM, an IC50 ([1]; Table 26, MDA-MB-468, 72 hours, read-out: 50% viability conc.) of 3.34 µM and an IC50 ([1]; Table 26, MDA-MB-468, 72 hours, read-out: IC50) of 2.53 µM. For the same compound, the Maximal inhibition % ([1]; Table 26, MDA-MB-468, 72 hours) was 93.83%, the “OD value 1” value ([2]; 0.400 uM, replicate 1) was 0.884 and the “OD value 2” value ([2]; 0.400 uM, replicate 2) was 0.866. For the same compound, the “OD value 1” value ([2]; 0.800 uM, replicate 1) was 0.860, the “OD value 2” value ([2]; 0.800 uM, replicate 2) was 0.803 and the “OD value 1” value ([2]; 1.600 uM, replicate 1) was 0.794. The “OD value 2” value ([2]; 1.600 uM, replicate 2) was 0.778, the “OD value 1” value ([2]; 3.200 uM, replicate 1) was 0.726 and the “OD value 2” value ([2]; 3.200 uM, replicate 2) was 0.756. For the same compound, the “OD value 1” value ([2]; 6.250 uM, replicate 1) was 0.686, the “OD value 2” value ([2]; 6.250 uM, replicate 2) was 0.692 and the “OD value 1” value ([2]; 12.500 uM, replicate 1) was 0.617. The “OD value 2” value ([2]; 12.500 uM, replicate 2) was 0.628, the “OD value 1” value ([2]; 25.000 uM, replicate 1) was 0.572 and the “OD value 2” value ([2]; 25.000 uM, replicate 2) was 0.583. For the same compound, the “OD value 1” value ([2]; 50.000 uM, replicate 1) was 0.458, the “OD value 2” value ([2]; 50.000 uM, replicate 2) was 0.488 and the “OD value 1” value ([2]; 100.000 uM, replicate 1) was 0.246. For the same compound, the “OD value 2” value ([2]; 100.000 uM, replicate 2) was 0.214, the inhibition at 0.4 µM ([2]; 0.400 uM, replicate 1, read-out: % of inhibition 1) was 2.1% and the inhibition at 0.4 µM ([2]; 0.400 uM, replicate 2, read-out: % of inhibition 2) was 1.92%. The inhibition at 0.8 µM ([2]; 0.800 uM, replicate 1, read-out: % of inhibition 1) was 4.8%, the inhibition at 0.8 µM ([2]; 0.800 uM, replicate 2, read-out: % of inhibition 2) was 9.05% and the inhibition at 1.6 µM ([2]; 1.600 uM, replicate 1, read-out: % of inhibition 1) was 12%. For the same compound, the inhibition at 1.6 µM ([2]; 1.600 uM, replicate 2, read-out: % of inhibition 2) was 11.9%, the inhibition at 3.2 µM ([2]; 3.200 uM, replicate 1, read-out: % of inhibition 1) was 19.7% and the inhibition at 3.2 µM ([2]; 3.200 uM, replicate 2, read-out: % of inhibition 2) was 14.3%. For the same compound, the inhibition at 6.25 µM ([2]; 6.250 uM, replicate 1, read-out: % of inhibition 1) was 24.1%, the inhibition at 6.25 µM ([2]; 6.250 uM, replicate 2, read-out: % of inhibition 2) was 21.7% and the inhibition at 12.5 µM ([2]; 12.500 uM, replicate 1, read-out: % of inhibition 1) was 31.7%. For the same compound, the inhibition at 12.5 µM ([2]; 12.500 uM, replicate 2, read-out: % of inhibition 2) was 28.9%, the inhibition at 25 µM ([2]; 25.000 uM, replicate 1, read-out: % of inhibition 1) was 36.7% and the inhibition at 25 µM ([2]; 25.000 uM, replicate 2, read-out: % of inhibition 2) was 34%. For the same compound, the inhibition at 50 µM ([2]; 50.000 uM, replicate 1, read-out: % of inhibition 1) was 49.3%, the inhibition at 50 µM ([2]; 50.000 uM, replicate 2, read-out: % of inhibition 2) was 44.5% and the inhibition at 100 µM ([2]; 100.000 uM, replicate 1, read-out: % of inhibition 1) was 72.8%. The inhibition at 100 µM ([2]; 100.000 uM, replicate 2, read-out: % of inhibition 2) was 75.8%, the IC50 ([2]; Table 18, read-out: PC-3* 50% inhibition concentration) was 41.3 µM and the IC50 ([2]; Table 26, 72 hours, read-out: 50% viability conc.) was 41.3 µM.
